Reference: patent US11976083B2, “Inhibitors of peptidylarginine deiminases” (Gilead Sciences, Inc., priority 2020, dated 2024)

target: T1, human PAD4 (Homo sapiens, UniProt Q9UM07); assay: In vitro PAD4 BAEE biochemical assay; conditions: BAEE substrate 3 mM, 5 nM PAD4, 2 mM calcium chloride; geometric mean of multiple experiments
T1 construct: human PAD4 (NM_012387), A2-P663, was PCR amplified; His-SUMO (N, cleaved yes); made in house; host or cells: E. coli BL21(DE3)
Outline: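 Fluorescence read-out (ex 405/em 535 nm) of isoindole formed from ammonia, o-phthalaldehyde and DTT after EDTA stop. Reaction: 5 nM PAD4, 2 mM CaCl2, 3 mM BAEE, 2 h, 25 °C, after 30 min enzyme–compound preincubation. Normalised to BB-Cl-Amidine (50 µM) and DMSO controls.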

T1 sequence (Q9UM07 2-663): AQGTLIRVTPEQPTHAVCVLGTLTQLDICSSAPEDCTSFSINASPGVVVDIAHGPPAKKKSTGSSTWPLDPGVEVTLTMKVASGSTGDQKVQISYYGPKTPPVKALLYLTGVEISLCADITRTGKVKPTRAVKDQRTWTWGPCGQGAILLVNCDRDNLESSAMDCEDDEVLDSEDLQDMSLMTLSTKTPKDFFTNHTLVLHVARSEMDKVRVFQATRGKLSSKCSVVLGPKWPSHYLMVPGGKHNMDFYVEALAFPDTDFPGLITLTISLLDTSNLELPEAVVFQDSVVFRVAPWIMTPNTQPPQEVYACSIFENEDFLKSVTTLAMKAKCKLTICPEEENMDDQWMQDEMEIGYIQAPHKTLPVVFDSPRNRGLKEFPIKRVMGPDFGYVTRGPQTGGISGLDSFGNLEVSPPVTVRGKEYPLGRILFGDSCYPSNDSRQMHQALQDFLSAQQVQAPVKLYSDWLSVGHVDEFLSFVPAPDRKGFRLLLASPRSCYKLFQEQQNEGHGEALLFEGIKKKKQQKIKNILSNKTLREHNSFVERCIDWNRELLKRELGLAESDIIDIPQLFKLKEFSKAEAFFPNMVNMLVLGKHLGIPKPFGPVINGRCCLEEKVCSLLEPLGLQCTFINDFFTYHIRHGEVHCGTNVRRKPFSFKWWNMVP

Going from `COc1cc(C(=O)N2[C@H]3CC[C@@H]2[C@H](N)C3)cc2nc(-c3cc4ccc5cc4n3CCCCCCCC(=O)N[C@@H]5C)n(C)c12` [Example 215, (11˜{R})-17-[5-[(1˜{R},2˜{R},4˜{S})-2-amino-7-azabicyclo[2.2.1]heptane-7-carbonyl]-7-methoxy-1-methyl-benzimidazol-2-yl]-11-methyl-1,10-diazatricyclo[10.5.2.0^{15,18}]nonadeca-12(19),13,15(18),16-tetraen-9-one] to `COc1cc(C(=O)N2[C@H]3CC[C@@H]2[C@H](N)C3)cc2nc(-c3cc4ccc5cc4n3CCCCCCC3(CC3)C(=O)N[C@@H]5C)n(C)c12` [Example 221, (11~{R})-17-[5-[(1~{R},2~{R},4~{S})-2-amino-7-azabicyclo[2.2.1]heptane-7-carbonyl]-7-methoxy-1-methyl-benzimidazol-2-yl]-11-methyl-spiro[1,10-diazatricyclo[10.5.2.0^{15,18}]nonadeca-12(19),13,15(18),16-tetraene-8,1′-cyclopropane]-9-one], the IC50 rises from 20 nM to 32 nM (1.6-fold).

First: COc1cc(C(=O)N2[C@H]3CC[C@@H]2[C@H](N)C3)cc2nc(-c3cc4ccc5cc4n3CCCCCCC(C)(C)C(=O)N[C@@H]5C)n(C)c12 [Example 216, (11˜{R})-17-[5-[(1˜{R},2˜{R},4˜{S})-2-amino-7-azabicyclo[2.2.1]heptane-7-carbonyl]-7-methoxy-1-methyl-benzimidazol-2-yl]-8,8,11-trimethyl-1,10-diazatricyclo[10.5.2.0^{15,18}]nonadeca-12(19),13,15(18),16-tetraen-9-one]
Second: COc1cc(C(=O)N2[C@H]3CC[C@@H]2[C@H](N)C3)cc2nc(-c3cc4ccc5cc4n3CCCCCOC(C)(C)C(=O)N[C@@H]5C)n(C)c12 [Example 222, (11~{R})-17-[5-[(1~{R},2~{R},4~{S})-2-amino-7-azabicyclo[2.2.1]heptane-7-carbonyl]-7-methoxy-1-methyl-benzimidazol-2-yl]-8,8,11-trimethyl-7-oxa-1,10-diazatricyclo[10.5.2.0^{15,18}]nonadeca-12(19),13,15(18),16-tetraen-9-one]
The IC50 of the first is 1.9-fold lower: 33 nM for the first, 64 nM for the second.

`COc1cc(C(=O)N2[C@H]3CC[C@@H]2[C@H](N)C3)cc2nc(-c3cc4ccc5nc4n3C[C@H]3C[C@@H]3COCCC(=O)N[C@@H]5C)n(C)c12` [Example 217, (3~{S},5~{S},12~{R})-18-[5-[(1~{R},2~{R},4~{S})-2-amino-7-azabicyclo[2.2.1]heptane-7-carbonyl]-7-methoxy-1-methyl-benzimidazol-2-yl]-12-methyl-7-oxa-1,11,20-triazatetracyclo[11.5.2.0^{3,5}.0^{16,19}] icosa-13(20),14,16(19),17-tetraen-10-one] and `COc1cc(C(=O)N2[C@H]3CC[C@@H]2[C@H](N)C3)cc2nc(-c3cc4ccc5nc4n3C[C@@H]3C[C@H]3COCCC(=O)N[C@@H]5C)n(C)c12` [Example 218, (3~{R},5~{R},12~{R})-18-[5-[(1~{R},2~{R},4~{S})-2-amino-7-azabicyclo[2.2.1]heptane-7-carbonyl]-7-methoxy-1-methyl-benzimidazol-2-yl]-12-methyl-7-oxa-1,11,20-triazatetracyclo[11.5.2.0^{3,5}.0^{16,19}] icosa-13(20),14,16(19),17-tetraen-10-one] are within 1.5-fold of each other in IC50: 32 nM for the first, 29 nM for the second.

`COc1cc(C(=O)N2[C@H]3CC[C@@H]2[C@H](N)C3)cc2nc(-c3cc4ccc5nc4n3CCCCC[C@@H](OC)C(C)(C)C(=O)N[C@@H]5C)n(C)c12` [Example 219, (7~{R},11~{R})-17-[5-[(1~{R},2~{R},4~{S})-2-amino-7-azabicyclo[2.2.1]heptane-7-carbonyl]-7-methoxy-1-methyl-benzimidazol-2-yl]-7-methoxy-8,8,11-trimethyl-1,10,19-triazatricyclo[10.5.2.0^{15,18}]nonadeca-12(19),13,15(18),16-tetraen-9-one] and `COc1cc(C(=O)N2[C@H]3CC[C@@H]2[C@H](N)C3)cc2nc(-c3cc4ccc5nc4n3CCCCC[C@H](OC)C(C)(C)C(=O)N[C@@H]5C)n(C)c12` [Example 220, (7~{S),11~{R})-17-[5-[(1~{R},2~{R},4~{S})-2-amino-7-azabicyclo[2.2.1]heptane-7-carbonyl]-7-methoxy-1-methyl-benzimidazol-2-yl]-7-methoxy-8,8,11-trimethyl-1,10,19-triazatricyclo[10.5.2.0^{15,18}]nonadeca-12(19),13,15(18),16-tetraen-9-one] are within 1.5-fold of each other in IC50: 72 nM for the first, 49 nM for the second.

`COc1cc(C(=O)N2[C@H]3CC[C@@H]2[C@H](N)C3)cc2nc(-c3cc4ccc5cc4n3CCCCCCC3(CC3)C(=O)N[C@@H]5C)n(C3CC3)c12` [Example 225, (11~{R})-17-[5-[(1~{R},2~{R},4~{S})-2-amino-7-azabicyclo[2.2.1]heptane-7-carbonyl]-1-cyclopropyl-7-methoxy-benzimidazol-2-yl]-11-methyl-spiro[1,10-diazatricyclo[10.5.2.0^{15,18}]nonadeca-12(19),13,15(18),16-tetraene-8,1′-cyclopropane]-9-one] and `COc1cc(C(=O)N2CCC[C@@H](N)C2)cc2nc(-c3cc4ccc5nc4n3CCCCCCC(C)(C)C(=O)N[C@@H]5C)n(C3CC3)c12` [Example 230, (11~{R})-17-[5-[(3~{R})-3-aminopiperidine-1-carbonyl]-1-cyclopropyl-7-methoxy-benzimidazol-2-yl]-8,8,11-trimethyl-1,10,19-triazatricyclo[10.5.2.0^{15,18}]nonadeca-12(19),13,15(18),16-tetraen-9-one] are within 1.5-fold of each other in IC50: 73 nM for the first, 84 nM for the second.

Compared with `COc1cc(C(=O)N2[C@H]3CC[C@@H]2[C@H](N)C3)cc2nc(-c3cc4ccc5nc4n3C[C@H]3C[C@@H]3CCCCC(=O)N[C@@H]5C)n(C)c12` [Example 226, (3~{S},5~{S},12~{R})-18-[5-[(1~{R},2~{R},4~{S})-2-amino-7-azabicyclo[2.2.1]heptane-7-carbonyl]-7-methoxy-1-methyl-benzimidazol-2-yl]-12-methyl-1,11,20-triazatetracyclo[11.5.2.0^{3,5}.0^{16,19}] icosa-13(20),14,16(19),17-tetraen-10-one], `COc1cc(C(=O)N2[C@H]3CC[C@@H]2[C@H](N)C3)cc2nc(-c3cc4ccc5nc4n3CCCCCCNC(=O)CC5C)n(C)c12` (stereo partly shown) [Example 227, 17-[5-[(1˜{R},2˜{R},4˜{S})-2-amino-7-azabicyclo[2.2.1]heptane-7-carbonyl]-7-methoxy-1-methyl-benzimidazol-2-yl]-11-methyl-1,8,19-triazatricyclo[10.5.2.0^{15,18}]nonadeca-12(19),13,15(18),16-tetraen-9-one] is 6.4-fold higher in IC50: 24 nM for the first, 154 nM for the second.

First: C[C@H]1NC(=O)CCCCCCCn2c(-c3nc4cc(C(=O)N5CCC[C@@H](N)C5)ccn4c3C3CC3)cc3ccc1nc32 [Example 228, (11~{R})-17-[7-[(3~{R})-3-aminopiperidine-1-carbonyl]-3-cyclopropyl-imidazo[1,2-a]pyridin-2-yl]-11-methyl-1,10,19-triazatricyclo[10.5.2.0^{15,18}]nonadeca-12(19),13,15(18),16-tetraen-9-one]
Second: COc1cc(C(=O)N2CCC[C@@H](N)C2)cc2nc(-c3cc4ccc5nc4n3CCCCCCCC(=O)N[C@@H]5C)n(C3CC3)c12 [Example 229, (11~{R})-17-[5-[(3~{R})-3-aminopiperidine-1-carbonyl]-1-cyclopropyl-7-methoxy-benzimidazol-2-yl]-11-methyl-1,10,19-triazatricyclo[10.5.2.0^{15,18}]nonadeca-12(19),13,15(18),16-tetraen-9-one]
The IC50 of the first is 1.8-fold higher: 131 nM for the first, 72 nM for the second. The second is the more potent here.

`COc1cc(C(=O)N2CCC[C@@H](N)C2)cc2nc(-c3cc4ccc5nc4n3CCCCCCC(=O)N[C@@H]5C)n(C3CC3)c12` [Example 231, (10~{R})-16-[5-[(3~{R})-3-aminopiperidine-1-carbonyl]-1-cyclopropyl-7-methoxy-benzimidazol-2-yl]-10-methyl-1,9,18-triazatricyclo[9.5.2.0^{14,17}]octadeca-11(18),12,14(17),15-tetraen-8-one] and `COc1cc(C(=O)N2CCC[C@@H](N)C2)cc2nc(-c3cc4ccc5nc4n3CCCCCCC3(CC3)C(=O)N[C@@H]5C)n(C)c12` [Example 233, (11~{R})-17-[5-[(3~{R})-3-aminopiperidine-1-carbonyl]-7-methoxy-1-methyl-benzimidazol-2-yl]-11-methyl-spiro[1,10,19-triazatricyclo[10.5.2.0^{15,18}]nonadeca-12(19),13,15(18),16-tetraene-8,1′-cyclopropane]-9-one] are within 1.5-fold of each other in IC50: 84 nM for the first, 82 nM for the second.

`COc1cc(C(=O)N2CCC[C@@H](N)C2)cc2nc(-c3cc4ccc5nc4n3CCCCCCCC(=O)NC5)n(C)c12` [Example 232, 17-[5-[(3~{R})-3-aminopiperidine-1-carbonyl]-7-methoxy-1-methyl-benzimidazol-2-yl]-1,10,19-triazatricyclo[10.5.2.0^{15,18}]nonadeca-12(19),13,15(18),16-tetraen-9-one] and `COc1cc(C(=O)N2CCC[C@@H](N)C2)cc2nc(-c3cc4ccc5nc4n3CCCCCCCC(=O)N(C)C5)n(C)c12` [Example 234, 17-[5-[(3˜{R})-3-aminopiperidine-1-carbonyl]-7-methoxy-1-methyl-benzimidazol-2-yl]-10-methyl-1,10,19-triazatricyclo[10.5.2.0^{15,18}]nonadeca-12(19),13,15(18),16-tetraen-9-one] are within 1.5-fold of each other in IC50: 549 nM for the first, 622 nM for the second.

`CCc1c(-c2cc3ccc4nc3n2CCCCCCC(C)(C)C(=O)N[C@@H]4C)nn2cc(C(=O)N3CCC[C@@H](N)C3)ccc12` [Example 237, (11~{R})-17-[6-[(3~{R})-3-aminopiperidine-1-carbonyl]-3-ethyl-pyrazolo[1,5-a]pyridin-2-yl]-8,8,11-trimethyl-1,10,19-triazatricyclo[10.5.2.0^{15,18}]nonadeca-12(19),13,15(18),16-tetraen-9-one] gave an IC50 of 62 nM.
